What all share (assay type): biochemical
In one assay the target is T1, CDK4 (Homo sapiens, UniProt P11802).
T1 construct: recombinant CDK4/Cyclin D1 (SignalChem); with Cyclin D1
Put plainly: in vitro kinase assay, […]-ATP ([…] ATP), retinoblastoma (C-term) substrate, SDS-PAGE autoradiography.

Another assay concerns the target T2, CDK2 (Homo sapiens, UniProt P24941).
T2 construct: recombinant CDK2/Cyclin A2 (SignalChem); with Cyclin A2
Put plainly: in vitro kinase assay, […]-ATP ([…] ATP), H1 histone substrate, SDS-PAGE autoradiography.

A further assay addresses T3, CDK1 (Homo sapiens, UniProt P06493).
T3 construct: recombinant CDK1/Cyclin B1 (SignalChem); with Cyclin B1
The description is as above.

T3 sequence (P06493 whole entry): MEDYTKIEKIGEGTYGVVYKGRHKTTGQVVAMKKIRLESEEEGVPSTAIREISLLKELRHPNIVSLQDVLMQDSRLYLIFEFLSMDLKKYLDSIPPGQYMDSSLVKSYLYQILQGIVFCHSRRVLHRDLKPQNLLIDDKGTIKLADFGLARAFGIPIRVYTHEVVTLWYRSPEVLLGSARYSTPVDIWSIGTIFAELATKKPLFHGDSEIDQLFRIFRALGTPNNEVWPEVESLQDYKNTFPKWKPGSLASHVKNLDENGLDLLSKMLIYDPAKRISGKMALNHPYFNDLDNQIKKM
T3 sequence (P14635 whole entry partner): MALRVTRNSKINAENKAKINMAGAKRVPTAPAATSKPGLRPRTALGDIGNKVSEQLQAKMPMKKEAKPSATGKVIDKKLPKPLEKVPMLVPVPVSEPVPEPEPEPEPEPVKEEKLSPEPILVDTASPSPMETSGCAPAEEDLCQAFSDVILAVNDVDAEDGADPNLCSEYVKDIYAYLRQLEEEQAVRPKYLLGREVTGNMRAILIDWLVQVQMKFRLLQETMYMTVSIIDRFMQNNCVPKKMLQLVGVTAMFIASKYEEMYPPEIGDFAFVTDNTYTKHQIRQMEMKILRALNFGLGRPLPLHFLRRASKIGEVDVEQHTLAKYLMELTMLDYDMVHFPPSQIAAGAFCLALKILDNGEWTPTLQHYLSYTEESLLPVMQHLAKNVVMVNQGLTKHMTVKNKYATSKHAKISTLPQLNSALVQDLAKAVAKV
T1 sequence (P11802 2-303): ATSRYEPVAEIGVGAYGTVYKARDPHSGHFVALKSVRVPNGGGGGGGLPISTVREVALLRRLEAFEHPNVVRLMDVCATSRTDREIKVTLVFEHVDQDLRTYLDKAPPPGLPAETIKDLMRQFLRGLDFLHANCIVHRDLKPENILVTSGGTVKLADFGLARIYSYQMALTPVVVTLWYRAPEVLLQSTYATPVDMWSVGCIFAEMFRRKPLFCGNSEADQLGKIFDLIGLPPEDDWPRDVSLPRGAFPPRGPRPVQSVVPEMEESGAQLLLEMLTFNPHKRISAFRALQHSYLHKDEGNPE
T1 sequence (P24385 whole entry partner): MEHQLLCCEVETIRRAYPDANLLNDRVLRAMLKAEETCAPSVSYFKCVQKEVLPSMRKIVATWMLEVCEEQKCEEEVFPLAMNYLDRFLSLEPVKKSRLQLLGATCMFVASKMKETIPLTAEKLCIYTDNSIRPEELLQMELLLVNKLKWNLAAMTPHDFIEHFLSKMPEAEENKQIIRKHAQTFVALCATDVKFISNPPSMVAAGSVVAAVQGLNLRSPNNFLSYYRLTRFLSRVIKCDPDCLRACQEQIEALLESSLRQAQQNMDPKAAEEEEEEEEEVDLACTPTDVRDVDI

As for `O=C(O)c1c(O)cc(O)cc1O` [2,4,6-THBA, 2,4,6-trihydroxybenzoic acid], the IC50 was 403 ± 63 µM against CDK4, 262 ± 29 µM against CDK2 and 580 ± 57 µM at CDK1.

Broadly, the IC50 is the concentration that inhibits the measured activity by half.

These data come from paper PMC6468648, “The Flavonoid Metabolite 2,4,6-Trihydroxybenzoic Acid Is a CDK Inhibitor and an Anti-Proliferative Agent: A Potential Role in Cancer Prevention” (Cancers, 2019).
